{"source": "paper PMC5218480", "about": "(PLoS ONE, 2017)", "system": "MV-4-11 cells", "test": "Gene expression microarray analysis (Affymetrix PrimeView) and GSEA", "type": "cell-based, human", "set-up": "RFU PODN (11730768_x_at) / Fold change /veh PODN (11730768_x_at) / RFU LINC00158 (11744669_a_at) / Fold change /veh LINC00158 (11744669_a_at) / RFU DUSP10 (11751237_a_at) / Fold change /veh DUSP10 (11751237_a_at) / RFU ID3 (11757404_x_at) / Fold change /veh ID3 (11757404_x_at) / RFU PLEKHG5 (11737974_s_at) / Fold change /veh PLEKHG5 (11737974_s_at) / RFU LRRC4B (11730491_at) / Fold change /veh LRRC4B (11730491_at) / RFU GIMAP4 (11747438_a_at) / Fold change /veh GIMAP4 (11747438_a_at) / RFU KRT8 (11758183_x_at) / Fold change /veh KRT8 (11758183_x_at) / RFU CNN1 (11734310_a_at) / Fold change /veh CNN1 (11734310_a_at) / RFU VPS37D (11726825_at) / Fold change /veh VPS37D (11726825_at) / RFU C10orf10 (11716522_x_at) / Fold change /veh C10orf10 (11716522_x_at) / RFU KIR2DL2 /// KIR2DL4 /// KIR2DL5A /// KIR2DL5B /// KIR2DS1 /// KIR2DS2 /// KIR2DS3 /// KIR2DS4 /// KIR3DL3 /// KIR3DL3 /// KIR3DS1 (11738374_at) / Fold change /veh KIR2DL2 /// KIR2DL4 /// KIR2DL5A /// KIR2DL5B /// KIR2DS1 /// KIR2DS2 /// KIR2DS3 /// KIR2DS4 /// KIR3DL3 /// KIR3DL3 /// KIR3DS1 (11738374_at) / RFU C1QL1 (11718748_at) / Fold change /veh C1QL1 (11718748_at) / RFU TMPRSS4 (11747572_a_at) / Fold change /veh TMPRSS4 (11747572_a_at) / RFU HAMP (11756126_x_at) / Fold change /veh HAMP (11756126_x_at) / RFU RNFT2 (11725882_a_at) / Fold change /veh RNFT2 (11725882_a_at) / RFU NR4A2 (11747474_a_at) / Fold change /veh NR4A2 (11747474_a_at) / RFU ABCC12 (11746883_a_at) / Fold change /veh ABCC12 (11746883_a_at) / RFU TMEM136 (11760407_x_at) / Fold change /veh TMEM136 (11760407_x_at) / RFU CLDN22 /// WWC2 (11732394_at) / Fold change /veh CLDN22 /// WWC2 (11732394_at) / RFU HLA-DPB1 (11760878_x_at) / Fold change /veh HLA-DPB1 (11760878_x_at) / RFU SPINT1 (11716480_a_at) / Fold change /veh SPINT1 (11716480_a_at) / RFU GAP43 (11754022_s_at) / Fold change /veh GAP43 (11754022_s_at) / RFU A4GNT (11735810_at) / Fold change /veh A4GNT (11735810_at) / RFU PRB3 (11715151_x_at) / Fold change /veh PRB3 (11715151_x_at) / RFU TUBB4B (11761932_at) / Fold change /veh TUBB4B (11761932_at) / RFU CAPN14 (11732068_a_at) / Fold change /veh CAPN14 (11732068_a_at) / RFU TMCC2 (11721928_a_at) / Fold change /veh TMCC2 (11721928_a_at) / RFU IRGQ (11745062_a_at) / Fold change /veh IRGQ (11745062_a_at) / RFU FAM174B (11720279_a_at) / Fold change /veh FAM174B (11720279_a_at) / RFU TMPRSS4 (11748680_a_at) / Fold change /veh TMPRSS4 (11748680_a_at) / RFU FAM212B (11763350_a_at) / Fold change /veh FAM212B (11763350_a_at) / RFU PLEKHG5 (11743358_a_at) / Fold change /veh PLEKHG5 (11743358_a_at) / RFU ZSCAN30 (11745921_a_at) / Fold change /veh ZSCAN30 (11745921_a_at) / RFU CMKLR1 (11741424_a_at) / Fold change /veh CMKLR1 (11741424_a_at) / RFU LOC101060620 /// MAPK8IP1 (11723275_at) / Fold change /veh LOC101060620 /// MAPK8IP1 (11723275_at) / RFU SPTSSB (11747773_x_at) / Fold change /veh SPTSSB (11747773_x_at) / RFU PRSS12 (11739890_at) / Fold change /veh PRSS12 (11739890_at) / RFU BIN1 (11741810_x_at) / Fold change /veh BIN1 (11741810_x_at) / RFU WNT11 (11732464_a_at) / Fold change /veh WNT11 (11732464_a_at) / RFU C10orf10 (11716521_a_at) / Fold change /veh C10orf10 (11716521_a_at) / RFU C5orf56 (11738089_at) / Fold change /veh C5orf56 (11738089_at) / RFU CYB561 (11721691_x_at) / Fold change /veh CYB561 (11721691_x_at) / RFU ANKRD19P (11752326_a_at) / Fold change /veh ANKRD19P (11752326_a_at) / RFU OR2T12 /// OR2T33 /// OR2T8 (11738714_s_at) / Fold change /veh OR2T12 /// OR2T33 /// OR2T8 (11738714_s_at) / RFU VCAN (11748164_a_at) / Fold change /veh VCAN (11748164_a_at) / RFU JSRP1 (11732532_at) / Fold change /veh JSRP1 (11732532_at) / RFU KRTAP10-11 (11738290_x_at) / Fold change /veh KRTAP10-11 (11738290_x_at) / RFU MYO3A (11730013_a_at) / Fold change /veh MYO3A (11730013_a_at) / RFU EBF3 (11725865_a_at) / Fold change /veh EBF3 (11725865_a_at) / RFU CAMK2N1 (11719241_x_at) / Fold change /veh CAMK2N1 (11719241_x_at) / RFU C5orf56 (11738088_a_at) / Fold change /veh C5orf56 (11738088_a_at) / RFU OLFML3 (11715873_a_at) / Fold change /veh OLFML3 (11715873_a_at) / RFU LOC100653217 /// NTM (11731650_a_at) / Fold change /veh LOC100653217 /// NTM (11731650_a_at) / RFU MAPK11 (11762145_a_at) / Fold change /veh MAPK11 (11762145_a_at) / RFU FIZ1 (11724087_x_at) / Fold change /veh FIZ1 (11724087_x_at) / RFU OASL (11726364_x_at) / Fold change /veh OASL (11726364_x_at) / RFU SOX15 (11748057_x_at) / Fold change /veh SOX15 (11748057_x_at) / RFU CD79A (11719716_a_at) / Fold change /veh CD79A (11719716_a_at) / RFU HIST1H1D (11736915_at) / Fold change /veh HIST1H1D (11736915_at) / RFU CASKIN2 (11723855_a_at) / Fold change /veh CASKIN2 (11723855_a_at) / RFU LOC730098 (11760151_x_at) / Fold change /veh LOC730098 (11760151_x_at) / RFU OR4N2 (11742367_at) / Fold change /veh OR4N2 (11742367_at) / RFU PRRT2 (11749266_a_at) / Fold change /veh PRRT2 (11749266_a_at) / RFU SNX32 (11753110_a_at) / Fold change /veh SNX32 (11753110_a_at) / RFU CDHR5 (11726645_a_at) / Fold change /veh CDHR5 (11726645_a_at) / RFU RCAN1 (11760418_a_at) / Fold change /veh RCAN1 (11760418_a_at) / RFU FAM167A (11723789_a_at) / Fold change /veh FAM167A (11723789_a_at) / RFU FAM26E (11764081_at) / Fold change /veh FAM26E (11764081_at) / RFU ISYNA1 (11749810_s_at) / Fold change /veh ISYNA1 (11749810_s_at) / RFU ACY1 (11761880_at) / Fold change /veh ACY1 (11761880_at) / RFU 11764098_at / Fold change /veh 11764098_at / RFU SAMD14 (11745864_x_at) / Fold change /veh SAMD14 (11745864_x_at) / RFU NPB (11741838_a_at) / Fold change /veh NPB (11741838_a_at) / RFU TMPRSS6 (11731388_a_at) / Fold change /veh TMPRSS6 (11731388_a_at) / RFU KRTAP10-2 (11738614_at) / Fold change /veh KRTAP10-2 (11738614_at) / RFU ARHGAP8 /// PRR5-ARHGAP8 (11727945_x_at) / Fold change /veh ARHGAP8 /// PRR5-ARHGAP8 (11727945_x_at) / RFU KRTAP5-7 /// NADSYN1 (11734609_at) / Fold change /veh KRTAP5-7 /// NADSYN1 (11734609_at) / RFU RASL12 (11751679_a_at) / Fold change /veh RASL12 (11751679_a_at) / RFU CDKN2B (11736163_a_at) / Fold change /veh CDKN2B (11736163_a_at) / RFU PRF1 (11729649_at) / Fold change /veh PRF1 (11729649_at) / RFU, ZNF638 /// ZNF638-IT1 / Fold change vs veh, ZNF638 /// ZNF638-IT1 / RFU, PANK3 / Fold change vs veh, PANK3 / RFU, SH3YL1 / Fold change vs veh, SH3YL1 / RFU, ZEB2 / Fold change vs veh, ZEB2 / RFU, NRIP1 / Fold change vs veh, NRIP1 / RFU, PTTG1IP / Fold change vs veh, PTTG1IP / RFU, CAPN2 / Fold change vs veh, CAPN2 / RFU, MED14 / Fold change vs veh, MED14 / RFU, SNORA58 / Fold change vs veh, SNORA58 / RFU, C1orf63 / Fold change vs veh, C1orf63 / RFU, LRRFIP1 / Fold change vs veh, LRRFIP1 / RFU, NDUFAF7 / Fold change vs veh, NDUFAF7 / RFU, SLC12A2 / Fold change vs veh, SLC12A2 / RFU, IBTK / Fold change vs veh, IBTK / RFU, ESF1 / Fold change vs veh, ESF1 / Fold change vs veh, TMEM50B / RFU, TAOK1 / Fold change vs veh, TAOK1 / RFU, ACBD3 / Fold change vs veh, ACBD3 / RFU, TMA16 / Fold change vs veh, TMA16 / RFU, RWDD3 / Fold change vs veh, RWDD3 / RFU, BCAT1 / Fold change vs veh, BCAT1 / RFU, EDEM3 / Fold change vs veh, EDEM3 / RFU, TMEM33 / Fold change vs veh, TMEM33 / RFU, WDR75 / Fold change vs veh, WDR75 / RFU, AHCTF1 / Fold change vs veh, AHCTF1 / RFU, TFRC / Fold change vs veh, TFRC / RFU, ZDHHC17 / Fold change vs veh, ZDHHC17 / RFU, NOM1 / Fold change vs veh, NOM1 / RFU, ARL8B / Fold change vs veh, ARL8B / RFU, ZBTB11 / Fold change vs veh, ZBTB11 / RFU, TAMM41 / Fold change vs veh, TAMM41 / RFU, KIAA1704 /// LOC100996395 / Fold change vs veh, KIAA1704 /// LOC100996395 / RFU, ING1 / Fold change vs veh, ING1 / RFU, TRMT61B / Fold change vs veh, TRMT61B / RFU, FUBP3 / Fold change vs veh, FUBP3 / RFU, TP53 / Fold change vs veh, TP53 / RFU, TNKS2 / Fold change vs veh, TNKS2 / RFU, ZFP14 / Fold change vs veh, ZFP14 / RFU, ACTR2 / Fold change vs veh, ACTR2 / RFU, PPP3R1 / Fold change vs veh, PPP3R1 / RFU, PIK3R1 / Fold change vs veh, PIK3R1 / RFU, HNRNPA1 / Fold change vs veh, HNRNPA1 / RFU, RNF170 / Fold change vs veh, RNF170 / RFU, ZNF28 / Fold change vs veh, ZNF28 / RFU, RNGTT / Fold change vs veh, RNGTT / RFU, OGT / Fold change vs veh, OGT / RFU, BRD1 / Fold change vs veh, BRD1 / RFU, MARS / Fold change vs veh, MARS / RFU, ZNF655 / Fold change vs veh, ZNF655 / RFU, FAHD1 / Fold change vs veh, FAHD1 / RFU, BDP1 / Fold change vs veh, BDP1 / RFU, LRRCC1 / Fold change vs veh, LRRCC1 / RFU, ARID1A / Fold change vs veh, ARID1A / RFU, ZNF146 / Fold change vs veh, ZNF146 / RFU, ZNF330 / Fold change vs veh, ZNF330 / RFU, GPN3 / Fold change vs veh, GPN3 / RFU, C9orf123 / Fold change vs veh, C9orf123 / RFU, N4BP2L2 / Fold change vs veh, N4BP2L2 / RFU, ARFIP1 / Fold change vs veh, ARFIP1 / RFU, FAM179B / Fold change vs veh, FAM179B / RFU, BCL10 / Fold change vs veh, BCL10 / RFU, UHRF1BP1L / Fold change vs veh, UHRF1BP1L / RFU, BET1 / Fold change vs veh, BET1 / RFU, CNOT2 / Fold change vs veh, CNOT2 / RFU, ZNF268 / Fold change vs veh, ZNF268 / Fold change vs veh, ZNF507 / RFU, DGCR2 / Fold change vs veh, DGCR2 / RFU, WDSUB1 / Fold change vs veh, WDSUB1 / Fold change vs veh, HSP90B1 /// MIR3652 / RFU, ADSS / Fold change vs veh, ADSS / RFU, GK / Fold change vs veh, GK / RFU, ZNF148 / Fold change vs veh, ZNF148 / RFU, TAF9 / Fold change vs veh, TAF9 / RFU, SLC1A5 / Fold change vs veh, SLC1A5 / RFU, SLMO2 / Fold change vs veh, SLMO2 / RFU, ABCC4 / Fold change vs veh, ABCC4 / RFU, LOC101060439 /// RAP1B / Fold change vs veh, LOC101060439 /// RAP1B / RFU, RFX7 / Fold change vs veh, RFX7 / RFU, GTPBP10 / Fold change vs veh, GTPBP10 / RFU, CNEP1R1 / Fold change vs veh, CNEP1R1 / RFU, BIVM-ERCC5 /// ERCC5 / Fold change vs veh, BIVM-ERCC5 /// ERCC5 / RFU, ILF3 / Fold change vs veh, ILF3 / RFU 11762660_at / Fold change /veh 11762660_at / RFU VCAN (11757783_s_at) / Fold change /veh VCAN (11757783_s_at) / RFU DDX43 (11728927_at) / Fold change /veh DDX43 (11728927_at) / RFU KRT8 (11758188_x_at) / Fold change /veh KRT8 (11758188_x_at) / RFU NKD1 (11759106_at) / Fold change /veh NKD1 (11759106_at) / RFU SRD5A1 (11742802_a_at) / Fold change /veh SRD5A1 (11742802_a_at) / RFU TPSAB1 /// TPSB2 (11721975_s_at) / Fold change /veh TPSAB1 /// TPSB2 (11721975_s_at) / RFU GSTM3 (11746129_a_at) / Fold change /veh GSTM3 (11746129_a_at) / RFU IL23R (11737362_x_at) / Fold change /veh IL23R (11737362_x_at) / RFU TMEM51 (11727254_a_at) / Fold change /veh TMEM51 (11727254_a_at) / RFU PIWIL2 (11732686_x_at) / Fold change /veh PIWIL2 (11732686_x_at) / RFU ORM1 (11744905_x_at) / Fold change /veh ORM1 (11744905_x_at) / RFU CCDC152 (11743942_at) / Fold change /veh CCDC152 (11743942_at) / RFU ECM1 (11717891_a_at) / Fold change /veh ECM1 (11717891_a_at) / RFU IL23R (11748794_a_at) / Fold change /veh IL23R (11748794_a_at) / RFU TNFAIP8L3 (11732012_x_at) / Fold change /veh TNFAIP8L3 (11732012_x_at) / RFU MBOAT4 (11741988_at) / Fold change /veh MBOAT4 (11741988_at) / RFU 11764193_at / Fold change /veh 11764193_at / RFU TMEM53 (11763286_at) / Fold change /veh TMEM53 (11763286_at) / RFU MAGEB2 (11727129_at) / Fold change /veh MAGEB2 (11727129_at) / RFU TMEM200A (11744735_a_at) / Fold change /veh TMEM200A (11744735_a_at) / RFU CCDC152 (11751479_a_at) / Fold change /veh CCDC152 (11751479_a_at) / RFU FAM211A (11726209_a_at) / Fold change /veh FAM211A (11726209_a_at) / RFU RGS16 (11746705_a_at) / Fold change /veh RGS16 (11746705_a_at) / RFU VCAN (11755009_s_at) / Fold change /veh VCAN (11755009_s_at) / RFU RHOB (11743442_s_at) / Fold change /veh RHOB (11743442_s_at) / RFU RGS16 (11720943_a_at) / Fold change /veh RGS16 (11720943_a_at) / RFU RGS16 (11720944_at) / Fold change /veh RGS16 (11720944_at) / RFU, VPS4B / Fold change vs veh, VPS4B / RFU, CREB1 / Fold change vs veh, CREB1 / RFU, DNAJC13 / Fold change vs veh, DNAJC13 / RFU, GNAQ / Fold change vs veh, GNAQ / RFU, CDK5R1 / Fold change vs veh, CDK5R1 / RFU, ZRANB3 / Fold change vs veh, ZRANB3 / RFU, CUL4A / Fold change vs veh, CUL4A / RFU, CCNY / Fold change vs veh, CCNY / RFU, UFL1 / Fold change vs veh, UFL1 / RFU, COG3 / Fold change vs veh, COG3 / RFU, DIAPH2 / Fold change vs veh, DIAPH2 / RFU, SKA2 / Fold change vs veh, SKA2 / RFU, AFF3 / Fold change vs veh, AFF3 / RFU, LMF1 / Fold change vs veh, LMF1 / RFU, IPO11 / Fold change vs veh, IPO11 / RFU, DFFB / Fold change vs veh, DFFB / RFU, FOXP1 / Fold change vs veh, FOXP1 / RFU, CARD8 / Fold change vs veh, CARD8 / RFU, STRN3 / Fold change vs veh, STRN3 / RFU, ADK / Fold change vs veh, ADK / RFU, RASSF2 / Fold change vs veh, RASSF2 / RFU, WIPF1 / Fold change vs veh, WIPF1 / RFU, LARP1B / Fold change vs veh, LARP1B / RFU, RASA1 / Fold change vs veh, RASA1 / RFU, RB1 / Fold change vs veh, RB1 / RFU, PPFIA1 / Fold change vs veh, PPFIA1 / RFU, MAT2A / Fold change vs veh, MAT2A / RFU, CCT5 / Fold change vs veh, CCT5 / RFU, WDR92 / Fold change vs veh, WDR92 / RFU, CUX1 / Fold change vs veh, CUX1 / RFU, TTC7A / Fold change vs veh, TTC7A / RFU, TMEM135 / Fold change vs veh, TMEM135 / RFU, DEPTOR / Fold change vs veh, DEPTOR / RFU, CPM / Fold change vs veh, CPM / RFU, DNAJB6 / Fold change vs veh, DNAJB6 / RFU, CACNA2D3 / Fold change vs veh, CACNA2D3 / RFU, DTX4 / Fold change vs veh, DTX4 / RFU, TFCP2 / Fold change vs veh, TFCP2 / RFU, GMCL1 /// GMCL1P1 / Fold change vs veh, GMCL1 /// GMCL1P1 / RFU, AEBP2 / Fold change vs veh, AEBP2 / RFU, SNHG1 /// SNORD22 /// SNORD25 /// SNORD26 /// SNORD27 /// SNORD28 /// SNORD29 /// SNORD31 / Fold change vs veh, SNHG1 /// SNORD22 /// SNORD25 /// SNORD26 /// SNORD27 /// SNORD28 /// SNORD29 /// SNORD31 / Fold change (Aza/veh), C12orf56 (ProbeSet 11735607_a_at) / Fold change (ACY-1035/veh), C12orf56 (ProbeSet 11735607_a_at) / Fold change (Aza/veh), FGFR1OP (ProbeSet 11751329_s_at) / Fold change (ACY-1035/veh), FGFR1OP (ProbeSet 11751329_s_at) / Fold change (Aza/veh), VPS36 (ProbeSet 11739960_a_at) / Fold change (ACY-1035/veh), VPS36 (ProbeSet 11739960_a_at) / RFU SYPL1 (11715823_x_at) / Fold change /veh SYPL1 (11715823_x_at) / RFU IGFBP7 (11715501_s_at) / Fold change /veh IGFBP7 (11715501_s_at) / RFU REEP3 (11722064_at) / Fold change /veh REEP3 (11722064_at) / RFU IGLL1 (11728026_x_at) / Fold change /veh IGLL1 (11728026_x_at): dose or concentration left out as unconfirmed", "settings": "MV-4-11 cells, 48 hours"}
{"smiles": "Nc1ncn([C@@H]2O[C@H](CO)[C@@H](O)[C@H]2O)c(=O)n1", "note": "[azacitidine]", "values": [{"measurement": "Fold change /veh LOC100653217 /// NTM (11731650_a_at)", "value": 1.16}]}
